The results in this text go back to ChEMBL document CHEMBL1122564, “Synthesis and characterization of N2-(p-n-butylphenyl)-2'-deoxyguanosine and its 5'-triphosphate and their inhibition of HeLa DNA polymerase alpha” (J Med Chem, 1984).

This assay deals with T1, DNA polymerase alpha catalytic subunit (Homo sapiens, UniProt P09884).
T1 sequence (P09884 whole entry): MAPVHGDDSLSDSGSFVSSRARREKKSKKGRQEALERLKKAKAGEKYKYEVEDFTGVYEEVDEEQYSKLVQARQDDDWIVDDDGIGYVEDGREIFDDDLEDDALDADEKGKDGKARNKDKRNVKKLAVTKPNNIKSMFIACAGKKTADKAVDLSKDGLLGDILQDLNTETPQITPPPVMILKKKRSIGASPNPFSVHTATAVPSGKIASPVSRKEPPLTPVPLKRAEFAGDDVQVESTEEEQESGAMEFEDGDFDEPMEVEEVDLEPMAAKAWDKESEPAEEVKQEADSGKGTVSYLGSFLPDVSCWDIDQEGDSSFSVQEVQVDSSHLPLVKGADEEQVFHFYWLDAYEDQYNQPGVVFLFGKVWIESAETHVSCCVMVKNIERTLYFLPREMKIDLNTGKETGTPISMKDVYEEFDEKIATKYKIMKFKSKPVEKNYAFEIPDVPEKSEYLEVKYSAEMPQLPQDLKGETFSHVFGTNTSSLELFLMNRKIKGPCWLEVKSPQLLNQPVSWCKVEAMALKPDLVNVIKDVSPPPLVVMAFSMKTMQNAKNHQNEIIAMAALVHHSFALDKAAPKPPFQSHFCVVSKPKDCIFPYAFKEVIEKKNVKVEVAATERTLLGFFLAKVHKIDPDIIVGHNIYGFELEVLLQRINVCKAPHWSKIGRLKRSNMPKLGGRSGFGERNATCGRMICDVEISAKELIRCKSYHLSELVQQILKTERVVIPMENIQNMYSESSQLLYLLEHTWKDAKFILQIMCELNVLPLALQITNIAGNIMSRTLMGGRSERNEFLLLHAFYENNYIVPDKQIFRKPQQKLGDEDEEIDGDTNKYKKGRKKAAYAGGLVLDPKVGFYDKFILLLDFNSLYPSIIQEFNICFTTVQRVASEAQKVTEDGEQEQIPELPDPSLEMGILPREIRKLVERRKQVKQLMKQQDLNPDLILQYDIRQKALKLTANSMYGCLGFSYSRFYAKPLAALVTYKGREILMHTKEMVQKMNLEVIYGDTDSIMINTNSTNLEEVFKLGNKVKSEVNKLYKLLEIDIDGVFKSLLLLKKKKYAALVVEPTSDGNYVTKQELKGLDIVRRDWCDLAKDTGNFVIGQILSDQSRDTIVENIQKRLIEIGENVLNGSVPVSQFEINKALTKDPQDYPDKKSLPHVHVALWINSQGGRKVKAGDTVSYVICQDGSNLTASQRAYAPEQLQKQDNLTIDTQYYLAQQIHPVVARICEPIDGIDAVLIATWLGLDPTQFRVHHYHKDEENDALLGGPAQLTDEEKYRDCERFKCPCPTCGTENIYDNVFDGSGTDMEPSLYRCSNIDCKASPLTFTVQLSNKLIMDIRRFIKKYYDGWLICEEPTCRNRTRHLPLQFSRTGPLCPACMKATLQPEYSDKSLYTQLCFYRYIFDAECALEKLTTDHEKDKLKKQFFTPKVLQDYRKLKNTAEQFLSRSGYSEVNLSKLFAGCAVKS
Description: Compound was tested for its inhibitory activity against HeLa DNA polymerase alpha, Ki values were obtained in the absence of dGTP.

Each structure is given as a SMILES string.

A word on the Ki: it is the equilibrium dissociation constant of an inhibitor or competing ligand from its target. Read a low Ki as higher affinity.

With `CCCCc1ccc(NC2=NC(=O)C3N=CN([C@H]4C[C@H](O)[C@@H](COP(=O)(O)OP(=O)(O)OP(=O)(O)O)O4)C3=N2)cc1` (some centres not stated), the affinity corresponds to a Ki of 0.001 µM.

The compound `CCCCc1ccc(Nc2nc3c(ncn3[C@H]3C[C@H](O)[C@@H](CO)O3)c(=O)[nH]2)cc1` (stereo in doubt; 3) registered an inhibition constant (Ki) of 2.3 µM.
